Read-outs that look alike come from different tables or passages of the source.
Tested on: K. pneumoniae NVT1001 strains with ESBL or AmpC β-lactamase plasmids
Assay: Etest MIC of β-lactams, OmpK35/36 loss, ΔramR and/or extended-spectrum β-lactamase and AmpC β-lactamase (Table 8)
Assay type: cell-based, Klebsiella pneumoniae
Details: Klebsiella pneumoniae
How it was run: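 Cloned resistance genes in pACYC177 or pACYC184 were electroporated into K. pneumoniae NVT1001. MICs were determined by Etest and rounded up to the next two-fold value. Ceftazidime and cefotaxime against the blaOXA-48 construct were also tested by CLSI broth microdilution, with breakpoints from CLSI 2017 (cephalothin CLSI 2015, moxifloxacin EUCAST 2017).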

[1] = CMY-2 on pACYC177, WT (NVT1001), read-out: MIC
[2] = CMY-2 on pACYC177, Δ35 (ΔompK35 mutant)
[3] = CMY-2 on pACYC177, Δ35/36 (ΔompK35/36 mutant)
[4] = CMY-2 on pACYC177, Δ36 (ΔompK36 mutant)
[5] = CMY-2 on pACYC177, ΔramR mutant
[6] = CMY-2 on pACYC177, ΔramRΔ35 (ΔramRΔompK35 mutant)
[7] = CMY-2 on pACYC177, ΔramRΔ35/36 (ΔramRΔompK35/36 mutant)
[8] = CMY-2 on pACYC177, ΔramRΔ36 (ΔramRΔompK36 mutant)
[9] = CTX-M-14 on pACYC177, WT (NVT1001), read-out: MIC
[10] = CTX-M-14 on pACYC177, Δ35 (ΔompK35 mutant)
[11] = CTX-M-14 on pACYC177, Δ35/36 (ΔompK35/36 mutant)
[12] = CTX-M-14 on pACYC177, Δ36 (ΔompK36 mutant)
[13] = CTX-M-14 on pACYC177, ΔramR mutant
[14] = CTX-M-14 on pACYC177, ΔramRΔ35 (ΔramRΔompK35 mutant)
[15] = CTX-M-14 on pACYC177, ΔramRΔ35/36 (ΔramRΔompK35/36 mutant)
[16] = CTX-M-14 on pACYC177, ΔramRΔ36 (ΔramRΔompK36 mutant)
[17] = CTX-M-15 on pACYC177, WT (NVT1001), read-out: MIC
[18] = CTX-M-15 on pACYC177, Δ35 (ΔompK35 mutant)
[19] = CTX-M-15 on pACYC177, Δ35/36 (ΔompK35/36 mutant)
[20] = CTX-M-15 on pACYC177, Δ36 (ΔompK36 mutant)
[21] = CTX-M-15 on pACYC177, ΔramR mutant
[22] = CTX-M-15 on pACYC177, ΔramRΔ35 (ΔramRΔompK35 mutant)
[23] = CTX-M-15 on pACYC177, ΔramRΔ35/36 (ΔramRΔompK35/36 mutant)
[24] = CTX-M-15 on pACYC177, ΔramRΔ36 (ΔramRΔompK36 mutant)
[25] = DHA-1-AmpR on pACYC177, WT (NVT1001), read-out: MIC
[26] = DHA-1-AmpR on pACYC177, Δ35 (ΔompK35 mutant)
[27] = DHA-1-AmpR on pACYC177, Δ35/36 (ΔompK35/36 mutant)
[28] = DHA-1-AmpR on pACYC177, Δ36 (ΔompK36 mutant)
[29] = DHA-1-AmpR on pACYC177, ΔramR mutant
[30] = DHA-1-AmpR on pACYC177, ΔramRΔ35 (ΔramRΔompK35 mutant)
[31] = DHA-1-AmpR on pACYC177, ΔramRΔ35/36 (ΔramRΔompK35/36 mutant)
[32] = DHA-1-AmpR on pACYC177, ΔramRΔ36 (ΔramRΔompK36 mutant)
[33] = SHV-12 on pACYC177, WT (NVT1001), read-out: MIC
[34] = SHV-12 on pACYC177, Δ35 (ΔompK35 mutant)
[35] = SHV-12 on pACYC177, Δ35/36 (ΔompK35/36 mutant)
[36] = SHV-12 on pACYC177, Δ36 (ΔompK36 mutant)
[37] = SHV-12 on pACYC177, ΔramR mutant
[38] = SHV-12 on pACYC177, ΔramRΔ35 (ΔramRΔompK35 mutant)
[39] = SHV-12 on pACYC177, ΔramRΔ35/36 (ΔramRΔompK35/36 mutant)
[40] = SHV-12 on pACYC177, ΔramRΔ36 (ΔramRΔompK36 mutant)
[41] = no supplemental plasmid, WT (NVT1001), read-out: MIC
[42] = no supplemental plasmid, Δ35 (ΔompK35 mutant)
[43] = no supplemental plasmid, Δ35/36 (ΔompK35/36 mutant)
[44] = no supplemental plasmid, Δ36 (ΔompK36 mutant)
[45] = no supplemental plasmid, ΔramR mutant
[46] = no supplemental plasmid, ΔramRΔ35 (ΔramRΔompK35 mutant)
[47] = no supplemental plasmid, ΔramRΔ35/36 (ΔramRΔompK35/36 mutant)
[48] = no supplemental plasmid, ΔramRΔ36 (ΔramRΔompK36 mutant)

CCO/N=C(\C(=O)N[C@@H]1C(=O)N2C(C(=O)[O-])=C(Sc3nc(-c4cc[n+](C)cc4)cs3)CS[C@H]12)c1nsc(N)n1 [Ceftaroline]
MIC [1]: 64 µg/mL | MIC [2]: 64 µg/mL | MIC [3]: > 256 µg/mL | MIC [4]: 256 µg/mL | MIC [5]: 64 µg/mL | MIC [6]: 64 µg/mL | MIC [7]: 128 µg/mL | MIC [8]: 256 µg/mL | MIC [9]: 128 µg/mL | MIC [10]: > 256 µg/mL | MIC [11]: > 256 µg/mL | MIC [12]: > 256 µg/mL | MIC [13]: > 256 µg/mL | MIC [14]: > 256 µg/mL | MIC [15]: > 256 µg/mL | MIC [16]: > 256 µg/mL | MIC [17]: > 256 µg/mL | MIC [18]: > 256 µg/mL | MIC [19]: > 256 µg/mL | MIC [20]: > 256 µg/mL | MIC [21]: > 256 µg/mL | MIC [22]: > 256 µg/mL | MIC [23]: > 256 µg/mL | MIC [24]: > 256 µg/mL | MIC [25]: 8 µg/mL | MIC [26]: 8 µg/mL | MIC [27]: 16 µg/mL | MIC [28]: 8 µg/mL | MIC [29]: 8 µg/mL | MIC [30]: 8 µg/mL | MIC [31]: 16 µg/mL | MIC [32]: 16 µg/mL | MIC [33]: 16 µg/mL | MIC [34]: 16 µg/mL | MIC [35]: 64 µg/mL | MIC [36]: 16 µg/mL | MIC [37]: 16 µg/mL | MIC [38]: 16 µg/mL | MIC [39]: 32 µg/mL | MIC [40]: 32 µg/mL | MIC [41]: 0.25 µg/mL | MIC [42]: 0.25 µg/mL | MIC [43]: 1 µg/mL | MIC [44]: 0.5 µg/mL | MIC [45]: 1 µg/mL | MIC [46]: 1 µg/mL | MIC [47]: 4 µg/mL | MIC [48]: 4 µg/mL

C[C@@H](O)[C@H]1C(=O)N2C(C(=O)O)=C(S[C@@H]3CN[C@H](C(=O)Nc4cccc(C(=O)O)c4)C3)[C@H](C)[C@H]12 [Ertapenem]
MIC [1]: 1 µg/mL | MIC [2]: 1 µg/mL | MIC [3]: > 32 µg/mL | MIC [4]: 4 µg/mL | MIC [5]: 1 µg/mL | MIC [6]: 1 µg/mL | MIC [7]: > 32 µg/mL | MIC [8]: > 32 µg/mL | MIC [9]: 0.125 µg/mL | MIC [10]: 0.25 µg/mL | MIC [11]: 8 µg/mL | MIC [12]: 0.25 µg/mL | MIC [13]: 0.25 µg/mL | MIC [14]: 0.25 µg/mL | MIC [15]: 16 µg/mL | MIC [16]: 16 µg/mL | MIC [17]: 0.5 µg/mL | MIC [18]: 0.5 µg/mL | MIC [19]: > 32 µg/mL | MIC [20]: 0.5 µg/mL | MIC [21]: 0.5 µg/mL | MIC [22]: 0.5 µg/mL | MIC [23]: > 32 µg/mL | MIC [24]: > 32 µg/mL | MIC [25]: 1 µg/mL | MIC [26]: 1 µg/mL | MIC [27]: > 32 µg/mL | MIC [28]: 1 µg/mL | MIC [29]: 1 µg/mL | MIC [30]: 1 µg/mL | MIC [31]: > 32 µg/mL | MIC [32]: > 32 µg/mL | MIC [33]: 0.06 µg/mL | MIC [34]: 0.06 µg/mL | MIC [35]: 4 µg/mL | MIC [36]: 0.06 µg/mL | MIC [37]: 0.125 µg/mL | MIC [38]: 0.125 µg/mL | MIC [39]: 4 µg/mL | MIC [40]: 4 µg/mL | MIC [41]: 0.015 µg/mL | MIC [42]: 0.03 µg/mL | MIC [43]: 2 µg/mL | MIC [44]: 0.03 µg/mL | MIC [45]: 0.125 µg/mL | MIC [46]: 0.125 µg/mL | MIC [47]: 4 µg/mL | MIC [48]: 4 µg/mL
